Patent publication US4535075A, “Dithiolane derivative, process for producing the same and use thereof” (Nihon Nohyaku Co., Ltd., priority 1982, dated 1985)
Converted amounts (≈) assume the structure as drawn. Where two headings read alike, the source gives them in different places.

Key:
[1] = acute oral toxicity (LD50); conditions: in vivo, male rat
Protocol: The compounds represented by the general formula (I) are low in toxicity to mammals.
Their acute oral toxicities to male rat expressed as LD50 values are shown below.
For example, the LD50 values of the compound No. 1, No. 2, No. 3, No. 8 and No. 12 are 1,000-3,000 mg/kg, 3,000-5,000 mg/kg, more than 5,000 mg/kg, more than 5,000 mg/kg and 1,000-3,000 mg/kg, respectively.

water solubility = format: physicochemical
[2] = system: liver damage induced by carbon tetrachloride; assay: Protective (Controlling) effect on liver damage induced by carbon tetrachloride; format: in vivo, mice (dd strain); conditions: 250 mg/kg p.o., CCl4 0.05 ml/kg after 6 h, 24 h; for p-GPT: CCl4 alone >2,100; for Liver Damage Index: average of 5 mice, 0 Normal, 2 Slightly recognized, 4 Clearly observable damage, 6 Heavy damage, CCl4 alone 5.0
Source text: Protective (Controlling) Effect on liver damage induced by carbon tetrachloride.
Carbon tetrachloride administration induces centrilobular necrosis of the liver associated with loss of diphosphopyridine nucleotide, hepatic glycogen, coenzyme A and increase in neutral fat. Release of several enzymes from the hepatocytes, and increases of enzyme activities in the plasma are recognized as the result of the damage of the liver.
A suitable means for evaluating the degree induced by carbon tetrachloride or the degree of protection afforded by drugs is to study the plasma glutamic-pyruvic transaminase (p-GPT) activity. […]
After 6 hours, carbon tetrachloride was administered orally 0.05 ml/kg.
Animals were killed 24 hours after carbon tetrachloride administration, and the liver was grossly observed.
The plasma was obtained by centrifugation. Activity of p-GPT were determined by the method of Reitman and Frankel and expressed in Karmen units.
Score for liver damage index was as follows:
1 Each figure indicated average of 5 mice.

[3] = system: liver damage induced by α-naphthyl isothiocyanate (ANIT); assay: Protective effect on liver damage induced by ANIT (Method 1); format: in vivo, mice; conditions: 2 x 250 mg/kg p.o., ANIT 35 mg/kg p.o., 24 h
Source text: (§1) Protective effect on liver damage induced by α-naphthyl isothiocyanate (referred to as "ANIT", hereinafter).
It is well known that experimental cholestasis is accomplished by administration with ANIT in mice and rats, and studied as a cholestasis model in human being.
ANIT and CCl4 induce necrosis in the liver. ANIT causes it as small focci in perilobular parenchyna and CCl4 causes centrilobular parenchymal coagulation necrosis.
From these information, the elevation of plasma GPT activity in these models are thought to have defferent characteristics.
Test compounds, dissolved or suspended in olive oil or diethyleneglycol, were orally administered 2 times at intervals of 3 hrs to mice at the dose of 250 mg/kg. At 3 hrs after the second administration with test compounds, ANIT was administered orally at 35 mg/kg.
Mice were sacrificed at 24 hrs after ANIT administration and blood samples were collected. The blood samples were centrifuged and plasma was obtained.
Plasma GPT activity and alkaline phosphatase activity were determined by Reitman & Frankel's method and Bessey-Lowry's method, respectively. The activity was expressed with Karmen Unit and Bessey-Lowry Unit, respectively.

[4] = system: fatty liver induced by carbon tetrachloride; assay: Protective effect on fatty liver (carbon tetrachloride); format: in vivo, rats (SD strain); conditions: percentage of mean value in carbon tetrachloride alone group, 100 mg/kg/day p.o. for 4 days, control 32.0
Protocol: Carbon tetrachloride also induces fatty liver. Carbon tetrachloride is generally considered to damage microsome and thereby to inhibit protein synthesis and induce fatty liver.
Carbon tetrachloride was subcutaneously administered to 5-6 week-old male rats (SD strain) for 4 days at the dose of 0.5 ml/kg/day.
Simultaneously, the compound of the present invention was orally administered to the rats for 4 days at the dose of 30 mg/kg/day or 100 mg/kg/day.
On the 5th day, the rats were sacrificed by exsanguination.
The controlling (protective) effect was evaluated by determining the content of triglyceride in the liver.
Triglyceride was determined colorimetrically by chromotropic acid method.
Each value represented the percentage of mean value in carbon tetrachloride alone group.

[5] = system: liver damage induced by α-naphthyl isothiocyanate (ANIT); assay: Protective effect on liver damage induced by ANIT (Method 2); format: in vivo, mice (dd strain); conditions: 250 mg/kg p.o., ANIT 35 mg/kg p.o. after 6 h, 24 h
Protocol: as §1
Test compounds, dissolved or suspended in olive oil or diethyleneglycol, were orally administered at the dose of 250 mg/kg to the mice (Six or Seven-week-old male mice-dd strain).
After 6 hours, ANIT dissolved in olive oil, was aministered orally at 35 mg/kg.
Mice were sacrificed at 24 hours after ANIT administration and blood samples were collected. The blood samples were centrifuged and plasma was obtained.
Plasma GPT activity and alkaline phosphatase activity were determined by Reitman & Frankel's method and Bessey-Lowry's method, respectively.
The activity was expressed with Karmen Unit and Bessey-Lowry Unit, respectively.

[6] = Table 3-1, control 3.3, ANIT alone 5.3
[7] = Table 3-1, control 7.4, ANIT alone 324.0
[8] = Table 3-3, control 2.9, ANIT alone >9.6
[9] = Table 3-3, control 17.5, ANIT alone >460.2

| SMILES | p-GPT [2] [Karmen units] | Liver Damage Index [2] | Alkaline phosphatase activity [3, 6] [B-L.V.] | p-GPT [3, 7] [K.U.] | Alkaline phosphatase activity [5, 8] [B-L.V.] | p-GPT [5, 9] [K.U.] | further results |
| --- | --- | --- | --- | --- | --- | --- | --- |
| C=CCOC(=O)C(C(=O)OCC=C)=C1SC(O)C(O)S1 (stereo not shown) [Compound 12, diallyl 4,5-dihydroxy-1,3-dithiolan-2-ylidenemalonate] | 63 | 1.0 | 4.9 | 19.9 |  |  | LD50 [1]: 1000 to 3000 mg/kg; solubility (water solubility; water): 2200 µg/mL (≈ 6.91 mM); Triglyceride [4]: 35.4% |
| CCOC(=O)C(C(C)=O)=C1SC(O)C(O)S1 (stereo not shown) [Compound 35] | 92 | 0.0 |  |  | 4.6 | > 245.0 |  |
| CC(C)OC(=O)C(C(=O)OC(C)C)=C1SC(O)C(O)S1 (stereo not shown) [Compound 23, diisopropyl 4,5-dihydroxy-1,3-dithiolan-2-ylidenemalonate] | 22.5 | 0.0 | 4.0 | 76.0 |  |  | solubility (water solubility; in water at 20° C., read-out: water solubility): 2000 µg/mL (≈ 6.2 mM) |
| CC(=O)C(C(=O)OCC(C)C)=C1SC(O)C(O)S1 (stereo not shown) [Compound 39] | 19 | 0.2 |  |  | 6.8 | 70.7 |  |
| C=CCOC(=O)C(C(C)=O)=C1SC(O)C(O)S1 (stereo not shown) [Compound 45] | 13 | 0.0 |  |  | 5.6 | 136.9 |  |
| CC(=O)C(C(=O)OCc1ccccc1)=C1SC(O)C(O)S1 (stereo not shown) [Compound 48] | 18 | 0.0 |  |  | 4.1 | 36.8 |  |
| CC(C)COC(=O)C(C(=O)OCC(C)C)=C1SC(O)C(O)S1 (stereo not shown) [Compound 5] | 135 | 0.0 |  |  |  |  | Alkaline phosphatase activity ([3]; Table 3-2, ANIT alone 5.3): 3.5 B-L.V.; p-GPT ([3]; Table 3-2, ANIT alone >653.7): 134.8 K.U.; Triglyceride [4]: 40.0% |
| CCCCOC(=O)C(C(C)=O)=C1SC(O)C(O)S1 (stereo not shown) [Compound 38] | 31 | 0.0 |  |  | 5.3 | 29.4 |  |
| CCC(C)OC(=O)C(C(C)=O)=C1SC(O)C(O)S1 (stereo not shown) [Compound 40] | 172 | 0.4 |  |  | 5.2 | 272.5 |  |
| CCCC(=O)C(C(=O)OCC)=C1SC(O)C(O)S1 (stereo not shown) [Compound 50] | 75 | 1.2 |  |  |  |  | Alkaline phosphatase activity ([5]; Table 3-4, control 3.7, ANIT alone 4.5): 3.0 B-L.V.; p-GPT ([5]; Table 3-4, control 11.3, ANIT alone 300.3): 18.5 K.U. |
| COC(=O)C(C(=O)OC)=C1SC(O)C(O)S1 (stereo not shown) [Compound 1] | 23 | 0.0 | 3.9 | 128.0 |  |  | LD50 [1]: 1000 to 3000 mg/kg; solubility (water solubility; 2% gum arabic aqueous solution, in 2% gum-arabia aqueous solution, read-out: solubility): 20000 µg/mL (≈ 75.1 mM); Triglyceride [4]: 57.5% |
| CCCCCOC(=O)C(C(=O)OCCCCC)=C1SC(O)C(O)S1 (stereo not shown) [Compound 8] | 21 | 0.0 | 4.3 | 56.0 |  |  | LD50 [1]: > 5000 mg/kg |
| CCCOC(=O)C(C(=O)OCCC)=C1SC(O)C(O)S1 (stereo not shown) [Compound 3] | 12 | 0.2 | 4.7 | 53.0 |  |  | LD50 [1]: > 5000 mg/kg; Triglyceride [4]: 39.0% |
| COCCOC(=O)C(C(C)=O)=C1SC(O)C(O)S1 (stereo not shown) [Compound 47] | 25 | 0.2 |  |  | 4.2 | 40.1 |  |
| COC(=O)C(C(C)=O)=C1SC(O)C(O)S1 (stereo not shown) [Compound 34] | 31 | 0.0 |  |  | 4.2 | 32.7 |  |
| CCOC(=O)C(C(=O)OCC)=C1SC(O)C(O)S1 (stereo not shown) [Compound 2, diethyl 4,5-dihydroxy-1,3-dithiolan-2-ylidenemalonate] | 15 | 0.0 | 4.4 | 28.0 |  |  | LD50 [1]: 3000 to 5000 mg/kg; Triglyceride [4]: 46.6% |
| CCCOC(=O)C(C(C)=O)=C1SC(O)C(O)S1 (stereo not shown) [Compound 36] | 30 | 0.2 |  |  | 3.9 | 60.0 |  |
| CCCCCOC(=O)C(C(C)=O)=C1SC(O)C(O)S1 (stereo not shown) [Compound 42] | 31 | 0.0 |  |  | 4.8 | 30.8 |  |
